Assay results: patent US8163699B2, “Method for the treatment of valvular disease” (Montreal Heart Institute, priority 2006, dated 2012)
Values joined by “and” are separate entries in the source; they are usually repeats but may differ in a detail not shown here. Equal entries are not always repeated.

Key:
aortic valve lesions = experiment: Histomorphometry of aortic valves in rabbit model of aortic valve stenosis; type: in vivo, New-Zealand White rabbits; details: treated group; post mortem after 2 weeks of treatment
From the text: An animal model adapted from that described by Drolet et al. (12) was used. Fifteen male New-Zealand White rabbits (2.7-3.0 kg, aged 12-13 weeks) were fed with a 0.5% cholesterol-enriched diet (Harlan, Indianapolis, Ind.) plus vitamin D2 (50000 UI per day; Sigma, Markham, Canada) in the drinking water until significant AVS, as defined by a decrease ≧10% of aortic valve area (AVA) or of the transvalvular velocities ratio (V1/V2), could be detected by echocardiography (12.9±2.4 weeks). The animals then returned to a standard diet (without vitamin D2) to mimic cholesterol lowering and were randomly assigned to receive either saline (control group, n=8) or the ApoA-1 mimetic peptide (treated group, n=7). Rabbits were given injections through the marginal ear vein of saline or of the ApoA-1 mimetic peptide (25 mg/kg) complexed with phospholipids (Compound A), 3 times per week for 2 weeks. Echocardiograms were performed serially (see Echocardiography Methods) every 3 to 4 days throughout the randomized treatment period. Two days after their last infusion, the animals underwent a final echocardiogram and were sacrificed, and the aortic valves were harvested for histological analyses. Blood samples were obtained through the ear artery at baseline, prior to treatment and before sacrifice. Total cholesterol, HDL cholesterol, triglycerides and calcium levels were measured with an automated filter photometer system (Dimension RxL Max, Dade Behring, Ill.). The ascending aorta and aortic valve were opened longitudinally and the 3 valvular cusps were separated. […] Stained or immunohistochemically labeled tissue sections obtained from the central third of each cusp were analyzed with a computer-based digitizing image system (Image Pro Plus, version 5.1) using a light microscope (BX41, Olympus) connected to a digital video camera (Qcolor3, Olympus). […] Lesion area (LA) and leaflet lesion length (LLL) were measured. […] Relationships between histomorphometry and echocardiographic variables were evaluated using Pearson correlation coefficient. […]

[1] = tested on: aortic valve stenosis (AVS); experiment: Echocardiography (aortic valve area, aortic valve thickness) in rabbit model of aortic valve stenosis; type: in vivo, New-Zealand White rabbits; details: for Aortic valve area (AVA): 25 mg/kg i.v. 3 times per week; for Aortic valve thickness: treated rabbits
From the text: A complex animal model of aortic valve stenosis has been developed in rabbits.
An animal model adapted from that described by Drolet et al. (12) was used. Fifteen male New-Zealand White rabbits (2.7-3.0 kg, aged 12-13 weeks) were fed with a 0.5% cholesterol-enriched diet (Harlan, Indianapolis, Ind.) plus vitamin D2 (50000 UI per day; Sigma, Markham, Canada) in the drinking water until significant AVS, as defined by a decrease ≧10% of aortic valve area (AVA) or of the transvalvular velocities ratio (V1/V2), could be detected by echocardiography (12.9±2.4 weeks).
The animals then returned to a standard diet (without vitamin D2) to mimic cholesterol lowering and were randomly assigned to receive either saline (control group, n=8) or the ApoA-1 mimetic peptide (treated group, n=7). Rabbits were given injections through the marginal ear vein of saline or of the ApoA-1 mimetic peptide (25 mg/kg) complexed with phospholipids (Compound A), 3 times per week for 2 weeks. Echocardiograms were performed serially (see Echocardiography Methods) every 3 to 4 days throughout the randomized treatment period. Two days after their last infusion, the animals underwent a final echocardiogram and were sacrificed, and the aortic valves were harvested for histological analyses. Blood samples were obtained through the ear artery at baseline, prior to treatment and before sacrifice. Total cholesterol, HDL cholesterol, triglycerides and calcium levels were measured with an automated filter photometer system (Dimension RxL Max, Dade Behring, Ill.).
Transthoracic echocardiographic studies were performed at baseline, on a weekly basis starting at 8 weeks of hypercholesterolemic diet until significant AVS developed, and then after 4, 7, 10 and 14 days of ApoA-1 mimetic peptide or saline control treatments. Studies were carried out with an S12 probe using a standard echocardiographic system (Sonos 5500, Philips Medical Imaging, MA). Intra-muscular injections of ketamine (45 mg/kg) and midazolam (0.75 mg/kg) were used for sedation.
Parasternal long and short-axis views of the aortic valve were recorded to assess leaflet morphology. Left ventricular outflow tract (LVOT) diameter was measured in a zoomed parasternal long-axis view, and LVOT cross-sectional area (CSALVOT) was calculated according to: CSALVOT=π(DLVOT/2)^2. LVOT velocity (V1) and velocity time integral (VTILVOT) were obtained with pulsed-wave Doppler sampled proximal to the aortic valve in the apical 5-chamber view. Continuous wave (CW) Doppler interrogation across the aortic valve was used to obtain transvalvular maximal velocity (V2) and VTI (VTIAO) in the same view. V1/V2 ratio was calculated in the pre-treatment period to determine AVS development. Aortic valve area (AVA) was obtained at each time point by the continuity equation: AVA=CSALVOT×(VTILVOT/[…]). Aortic valve thickness in its middle portion was measured at end-diastole in a zoomed parasternal long-axis view at baseline, before randomized therapy, and at the final echocardiographic exam.
The average of three consecutive cardiac cycles was used for each measurement. Special care was taken to obtain similar imaging planes on serial examinations by reviewing previous recordings before follow-up study. All echocardiographic imaging and measurements were performed throughout the protocol by the same experienced investigator blinded to randomized treatment assignment.
Data are presented as mean±standard deviation. For the “pre-treatment” period, repeated measures analysis of variance (ANOVA) models were used to study the echocardiographic and serum measurements across time and between groups (treated vs. control groups). Models with time, group and group×time interaction as independent variables were used and comparisons between groups at a given time point were undertaken only in the presence of a significant group×time interaction. Otherwise, global conclusions were drawn based on the main group effects of the model. […]

[2] = treated group, after 7 days of treatment
[3] = treated group, after 10 days of treatment
[4] = treated group, after 14 days of treatment

H-Pro-Val-Leu-Asp-Leu-Phe-Arg-Glu-Leu-Leu-Asn-Glu-Leu-Leu-Glu-Ala-Leu-Lys-Gln-Lys-Leu-Lys-OH (H-PVLDLFRELLNELLEALKQKLK-OH; not fully specified) [ApoA-1 mimetic peptide, ApoA-1 mimetic peptide complexed with phospholipids, mimicking nascent HDL]
% LLL (percentage of total leaflet length occupied by lesion) (aortic valve lesions): 55.7±24.3%
Lesion extent at the base of valve leaflets and sinuses of Valsalva (aortic valve lesions): 52.8±12.5%
percentage of lesion area (LA) per region of analysis (ROA) (aortic valve lesions): 52.8±12.5 %/ROA
Aortic valve area (AVA) [1, 2]: 21.9±3.6 mm^2
Aortic valve area (AVA) [1, 3]: 23.0±4.1 mm^2
Aortic valve area (AVA) [1, 4]: 23.8±3.1 mm^2
relative increase of AVA [1, 2]: 14.2±3.5% and 14.2%
relative increase of AVA [1, 3]: 19.8±3.5% and 19.8%
relative increase of AVA [1, 4]: 24.6±2.0% and 24% and 24.6%
decrease of aortic valve thickness ([1]; treated group, within 14 days of treatment): 21%
Aortic valve thickness ([1]; at end of treatment (14 days)): 0.075±0.033 cm
Aortic valve thickness ([1]; before randomization (pre-treatment value)): 0.094±0.034 cm
